From ChEMBL document CHEMBL1124315, “N- and 2-substituted N-(phenylsulfonyl)glycines as inhibitors of rat lens aldose reductase” (J Med Chem, 1989)

biological target: Aldo-keto reductase family 1 member B1 (Rattus norvegicus, UniProt P07943); assay: Inhibitory concentration against aldose reductase obtained from rat lens

| SMILES | IC50 |
| --- | --- |
| Cc1ccc(S(=O)(=O)N[C@@H](C(=O)O)c2ccccc2)cc1 | 90 µM |
| CN(c1ccccc1C(=O)O)S(=O)(=O)c1ccc([N+](=O)[O-])cc1 | > 2000 µM |
| O=C(O)CN(c1ccccc1)S(=O)(=O)c1ccc2ccccc2c1 | 4.5 µM |
| O=C(O)C(NS(=O)(=O)c1ccc2ccccc2c1)c1ccccc1 (single isomer, unassigned; 6n) | 2.5 µM |
| O=C(O)CN(c1ccccc1)S(=O)(=O)c1ccccc1 | 29 µM |
| O=C(O)CNS(=O)(=O)c1ccc([N+](=O)[O-])cc1 | 79 µM |
| O=C(O)CN(c1ccccc1)S(=O)(=O)c1ccc(NC(=O)c2ccccc2)cc1 | 0.38 µM |
| O=C(O)[C@H](NS(=O)(=O)c1ccccc1)c1ccccc1 | 460 µM |
| O=C(O)CNS(=O)(=O)c1ccccc1 | 130 µM |
| O=C(O)CN(c1ccc(F)cc1)S(=O)(=O)c1ccccc1 | 22 µM |
| Nc1ccc(S(=O)(=O)N(CC(=O)O)c2ccccc2)cc1 | 9.3 µM |
| O=C(O)c1ccccc1NS(=O)(=O)c1ccc(Cl)cc1 | 130 µM |
| Cc1cccc(N(CC(=O)O)S(=O)(=O)c2ccccc2)c1 | 27 µM |
| O=C(O)CN(c1ccccc1)S(=O)(=O)c1ccc(Cl)cc1 | 16 µM |
| O=C(O)[C@@H](NS(=O)(=O)c1ccc([N+](=O)[O-])cc1)c1ccccc1 | 8.6 µM |
| O=C(O)CN(c1ccccc1)S(=O)(=O)c1ccc(F)cc1 | 26 µM |
| O=C(O)C(NS(=O)(=O)c1ccc2ccccc2c1)c1ccccc1 (single isomer, unassigned; 6m) | 230 µM |
| Nc1ccc(S(=O)(=O)Nc2ccccc2C(=O)O)cc1 | 7.9 µM |
| COc1ccc(S(=O)(=O)NCC(=O)O)cc1 | 31 µM |
| O=C(O)CN(c1ccccc1Cl)S(=O)(=O)c1ccccc1 | 7.6 µM |

| SMILES | IC50 |
| --- | --- |
| Cc1ccc(N(CC(=O)O)S(=O)(=O)c2ccccc2)cc1 | 26 µM |
| O=C(O)c1ccccc1NS(=O)(=O)c1ccccc1 | 65 µM |
| O=C(O)CNS(=O)(=O)c1ccc(F)cc1 | 43 µM |
| COc1ccc(S(=O)(=O)N(CC(=O)O)c2ccccc2)cc1 | 1.8 µM |
| Cc1ccc(S(=O)(=O)N[C@H](C(=O)O)c2ccccc2)cc1 | 8.9 µM |
| Cc1ccc(S(=O)(=O)Nc2ccccc2C(=O)O)cc1 | 69 µM |
| O=C(O)CN(c1ccc(Cl)cc1)S(=O)(=O)c1ccccc1 | 27 µM |
| O=C(O)CN(c1ccccc1)S(=O)(=O)c1ccccc1[N+](=O)[O-] | 3.6 µM |
| Cc1ccc(S(=O)(=O)N(CC(=O)O)c2ccccc2)cc1 | 14 µM |
| O=C(O)c1ccccc1NS(=O)(=O)c1ccc2ccccc2c1 | 5.7 µM |
| O=C(O)[C@@H](NS(=O)(=O)c1ccc(F)cc1)c1ccccc1 | 25 µM |
| O=C(O)[C@H](NS(=O)(=O)c1ccc(F)cc1)c1ccccc1 | 960 µM |
| O=C(O)[C@@H](NS(=O)(=O)c1ccc(Cl)cc1)c1ccccc1 | 7.1 µM |
| O=C(O)CN(c1ccccc1)S(=O)(=O)c1ccc([N+](=O)[O-])cc1 | 4.4 µM |
| O=C(O)CNS(=O)(=O)c1ccc(Cl)cc1 | 130 µM |
| O=C(O)CN(c1cccc([N+](=O)[O-])c1)S(=O)(=O)c1ccccc1 | 8.7 µM |
| O=C(O)[C@H](NS(=O)(=O)c1ccc([N+](=O)[O-])cc1)c1ccccc1 | 980 µM |
| O=C(O)c1ccccc1NS(=O)(=O)c1ccc([N+](=O)[O-])cc1 | 390 µM |
| O=C(O)CNS(=O)(=O)c1ccc2ccccc2c1 | 0.4 µM |
| Nc1cccc(S(=O)(=O)N(CC(=O)O)c2ccccc2)c1 | 27 µM |

| SMILES | IC50 |
| --- | --- |
| O=C(O)CN(c1cccc(Cl)c1)S(=O)(=O)c1ccccc1 | 13 µM |
| O=C(O)CNS(=O)(=O)c1ccc(NC(=O)c2ccccc2)cc1 | 0.88 µM |
| CN(c1ccccc1C(=O)O)S(=O)(=O)c1ccc2ccccc2c1 | 400 µM |
| Cc1ccccc1N(CC(=O)O)S(=O)(=O)c1ccccc1 | 340 µM |
| Cc1ccc(S(=O)(=O)NCC(=O)O)cc1 | 32 µM |
| COc1ccc(S(=O)(=O)Nc2ccccc2C(=O)O)cc1 | 130 µM |
| O=C(O)[C@@H](NS(=O)(=O)c1ccccc1)c1ccccc1 | 11 µM |
| COc1ccc(S(=O)(=O)N[C@H](C(=O)O)c2ccccc2)cc1 | 13 µM |
| O=C(O)[C@H](NS(=O)(=O)c1ccc(Cl)cc1)c1ccccc1 | 340 µM |
| O=C(O)c1ccccc1NS(=O)(=O)c1ccc(Br)cc1 | 85 µM |
| Nc1ccccc1S(=O)(=O)N(CC(=O)O)c1ccccc1 | 67 µM |
| COc1ccc(N(CC(=O)O)S(=O)(=O)c2ccccc2)cc1 | 38 µM |
| O=C(O)c1ccccc1NS(=O)(=O)c1cccc2ccccc12 | 8.3 µM |
| O=C(O)CNS(=O)(=O)c1ccccc1[N+](=O)[O-] | 13 µM |
| COc1ccc(S(=O)(=O)N(C)c2ccccc2C(=O)O)cc1 | > 2000 µM |
| O=C(O)CN(c1ccccc1)S(=O)(=O)c1cccc([N+](=O)[O-])c1 | 1.3 µM |
| COc1ccc(S(=O)(=O)N[C@@H](C(=O)O)c2ccccc2)cc1 | 36 µM |
| Nc1ccccc1S(=O)(=O)NCC(=O)O | 37 µM |
| Nc1ccc(N(CC(=O)O)S(=O)(=O)c2ccccc2)cc1 | 68 µM |
